What was measured:
TGF-beta receptor type-1 [1] = biological target: T1, TGF-beta receptor type-1 (Homo sapiens, UniProt P36897); experiment: Inhibition of TGFbeta receptor in human HaCaT cells assessed as Smad phosphorylation by ELISA; assay type: cell-based
T1 sequence (P36897 whole entry): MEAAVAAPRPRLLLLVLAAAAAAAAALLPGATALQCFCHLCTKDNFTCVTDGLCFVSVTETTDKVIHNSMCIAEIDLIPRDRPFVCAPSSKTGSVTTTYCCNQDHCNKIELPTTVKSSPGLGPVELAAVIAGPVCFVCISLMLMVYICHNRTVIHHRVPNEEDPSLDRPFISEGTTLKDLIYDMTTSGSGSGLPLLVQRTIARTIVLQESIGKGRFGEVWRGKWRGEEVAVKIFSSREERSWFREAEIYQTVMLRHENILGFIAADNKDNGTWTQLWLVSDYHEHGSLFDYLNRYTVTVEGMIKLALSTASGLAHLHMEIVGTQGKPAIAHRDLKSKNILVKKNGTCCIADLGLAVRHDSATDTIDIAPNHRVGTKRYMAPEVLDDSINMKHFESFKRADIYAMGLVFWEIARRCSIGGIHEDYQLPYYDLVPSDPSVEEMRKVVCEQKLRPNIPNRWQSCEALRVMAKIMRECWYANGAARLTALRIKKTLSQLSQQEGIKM

[2] = biological target: Dual specificity mitogen-activated protein kinase kinase 2 (Homo sapiens) (UniProt P36507); experiment: Inhibition of MKK2 at 1 uM; values are per cent of control
TGF-beta receptor type-1 [3] = biological target: T1, TGF-beta receptor type-1; experiment: Inhibition of TGFbeta receptor
[4] = biological target: T2, Mitogen-activated protein kinase 13 (Homo sapiens) (UniProt O15264); experiment: Inhibition of p38delta at 1 uM; values are per cent of control
T2 sequence (whole entry): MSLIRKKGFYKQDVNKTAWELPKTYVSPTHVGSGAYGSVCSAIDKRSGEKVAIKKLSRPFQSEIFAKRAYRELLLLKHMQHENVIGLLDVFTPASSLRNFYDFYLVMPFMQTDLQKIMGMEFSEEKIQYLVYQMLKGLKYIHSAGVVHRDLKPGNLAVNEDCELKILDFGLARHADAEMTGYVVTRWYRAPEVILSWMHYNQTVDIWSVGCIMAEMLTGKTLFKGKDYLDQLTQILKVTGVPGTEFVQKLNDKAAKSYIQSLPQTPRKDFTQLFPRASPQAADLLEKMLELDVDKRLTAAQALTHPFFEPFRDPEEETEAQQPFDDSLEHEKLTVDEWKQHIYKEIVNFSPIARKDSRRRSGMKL

[5] = biological target: T3, Lymphokine-activated killer T-cell-originated protein kinase (Homo sapiens) (UniProt Q96KB5); experiment: Inhibition of PBK at 1 uM; values are per cent of control
T3 sequence (whole entry): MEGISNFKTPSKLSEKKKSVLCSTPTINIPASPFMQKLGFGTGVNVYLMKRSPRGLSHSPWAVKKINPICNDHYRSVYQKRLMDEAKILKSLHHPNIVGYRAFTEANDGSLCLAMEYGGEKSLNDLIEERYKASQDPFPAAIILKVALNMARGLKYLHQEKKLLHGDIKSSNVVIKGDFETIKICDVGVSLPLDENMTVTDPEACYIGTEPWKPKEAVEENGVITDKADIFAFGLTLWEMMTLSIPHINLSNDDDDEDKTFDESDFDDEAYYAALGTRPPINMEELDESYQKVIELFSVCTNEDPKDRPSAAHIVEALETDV

HaCaT = experiment: Cytotoxicity against human HaCaT cells
[6] = biological target: Platelet-derived growth factor receptor alpha (Homo sapiens, UniProt P16234); experiment: Inhibition of PDGFRalpha
[7] = biological target: T4, Serine/threonine-protein kinase Sgk1 (Homo sapiens) (UniProt O00141); experiment: Inhibition of SGK at 1 uM; values are per cent of control
T4 sequence (whole entry): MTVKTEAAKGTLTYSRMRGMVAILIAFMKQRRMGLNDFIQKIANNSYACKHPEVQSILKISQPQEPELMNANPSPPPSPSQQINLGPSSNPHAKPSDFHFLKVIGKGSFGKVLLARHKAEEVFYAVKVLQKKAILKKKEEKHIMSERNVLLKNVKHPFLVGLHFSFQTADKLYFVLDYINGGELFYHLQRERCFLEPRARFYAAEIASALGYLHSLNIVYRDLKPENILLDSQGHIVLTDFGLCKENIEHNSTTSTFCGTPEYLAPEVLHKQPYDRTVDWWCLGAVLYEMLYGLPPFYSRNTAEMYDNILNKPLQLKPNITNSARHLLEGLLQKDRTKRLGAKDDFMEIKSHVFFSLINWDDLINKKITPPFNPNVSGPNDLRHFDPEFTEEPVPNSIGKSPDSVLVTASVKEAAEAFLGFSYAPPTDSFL

[8] = biological target: Proto-oncogene tyrosine-protein kinase Src (Homo sapiens) (UniProt P12931); experiment: Inhibition of Src at 2 uM
[9] = biological target: Serine/threonine-protein kinase Nek6 (Homo sapiens) (UniProt Q9HC98); experiment: Inhibition of NEK6 at 1 uM; values are per cent of control
[10] = biological target: Mitogen-activated protein kinase 11 (Homo sapiens) (UniProt Q15759); experiment: Inhibition of p38beta2 at 1 uM; values are per cent of control
[11] = biological target: Mitogen-activated protein kinase 12 (Homo sapiens) (UniProt P53778); experiment: Inhibition of p38-gamma at 1 uM; values are per cent of control
[12] = biological target: Bone morphogenetic protein receptor type-2 (Homo sapiens, UniProt Q13873); experiment: Inhibition of BMPR2
TGF-beta receptor type-2 = TGF-beta receptor type-2 (Homo sapiens, UniProt P37173); experiment: Inhibition of TGFbeta2 receptor
TGF-beta receptor type-2, sequence (P37173 whole entry): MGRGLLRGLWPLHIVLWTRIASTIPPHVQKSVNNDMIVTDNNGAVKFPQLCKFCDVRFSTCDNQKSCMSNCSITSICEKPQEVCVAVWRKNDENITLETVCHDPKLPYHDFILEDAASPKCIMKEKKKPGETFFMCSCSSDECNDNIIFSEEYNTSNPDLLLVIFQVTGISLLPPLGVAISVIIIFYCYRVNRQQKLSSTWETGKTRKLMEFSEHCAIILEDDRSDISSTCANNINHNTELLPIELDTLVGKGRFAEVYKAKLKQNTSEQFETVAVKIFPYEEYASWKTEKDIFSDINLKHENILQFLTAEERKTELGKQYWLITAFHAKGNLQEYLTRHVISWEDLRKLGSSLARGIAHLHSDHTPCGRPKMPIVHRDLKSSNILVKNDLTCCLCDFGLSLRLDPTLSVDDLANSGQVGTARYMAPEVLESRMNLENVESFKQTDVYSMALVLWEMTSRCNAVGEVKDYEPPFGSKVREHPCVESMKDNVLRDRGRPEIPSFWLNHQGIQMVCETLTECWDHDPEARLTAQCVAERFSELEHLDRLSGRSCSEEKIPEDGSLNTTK

Proto-oncogene tyrosine-protein kinase Src (Homo sapiens), sequence (P12931 2-536 limits assumed): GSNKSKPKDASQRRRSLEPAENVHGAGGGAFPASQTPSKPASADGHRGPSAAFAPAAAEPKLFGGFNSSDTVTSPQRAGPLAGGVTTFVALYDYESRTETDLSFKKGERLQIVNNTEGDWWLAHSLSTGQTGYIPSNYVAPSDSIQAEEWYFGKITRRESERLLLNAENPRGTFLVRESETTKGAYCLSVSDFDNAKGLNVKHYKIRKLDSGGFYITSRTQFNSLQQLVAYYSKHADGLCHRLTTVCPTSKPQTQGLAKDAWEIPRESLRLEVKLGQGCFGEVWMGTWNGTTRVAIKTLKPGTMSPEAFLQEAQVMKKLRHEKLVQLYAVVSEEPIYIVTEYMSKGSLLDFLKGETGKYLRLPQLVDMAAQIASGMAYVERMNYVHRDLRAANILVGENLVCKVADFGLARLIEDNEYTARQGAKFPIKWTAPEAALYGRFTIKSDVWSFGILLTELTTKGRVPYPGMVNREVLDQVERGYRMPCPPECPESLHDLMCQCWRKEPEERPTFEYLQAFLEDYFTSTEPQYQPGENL
Serine/threonine-protein kinase Nek6 (Homo sapiens), sequence (Q9HC98 whole entry): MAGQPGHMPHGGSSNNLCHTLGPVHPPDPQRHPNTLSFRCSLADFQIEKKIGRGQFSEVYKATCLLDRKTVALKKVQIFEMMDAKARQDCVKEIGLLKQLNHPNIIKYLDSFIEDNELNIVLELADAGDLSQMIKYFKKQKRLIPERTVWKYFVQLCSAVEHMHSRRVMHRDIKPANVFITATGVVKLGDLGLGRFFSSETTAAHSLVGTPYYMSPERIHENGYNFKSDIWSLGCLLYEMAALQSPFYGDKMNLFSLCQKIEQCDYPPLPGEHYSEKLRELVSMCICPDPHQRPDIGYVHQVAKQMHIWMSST
Platelet-derived growth factor receptor alpha, sequence (P16234 whole entry): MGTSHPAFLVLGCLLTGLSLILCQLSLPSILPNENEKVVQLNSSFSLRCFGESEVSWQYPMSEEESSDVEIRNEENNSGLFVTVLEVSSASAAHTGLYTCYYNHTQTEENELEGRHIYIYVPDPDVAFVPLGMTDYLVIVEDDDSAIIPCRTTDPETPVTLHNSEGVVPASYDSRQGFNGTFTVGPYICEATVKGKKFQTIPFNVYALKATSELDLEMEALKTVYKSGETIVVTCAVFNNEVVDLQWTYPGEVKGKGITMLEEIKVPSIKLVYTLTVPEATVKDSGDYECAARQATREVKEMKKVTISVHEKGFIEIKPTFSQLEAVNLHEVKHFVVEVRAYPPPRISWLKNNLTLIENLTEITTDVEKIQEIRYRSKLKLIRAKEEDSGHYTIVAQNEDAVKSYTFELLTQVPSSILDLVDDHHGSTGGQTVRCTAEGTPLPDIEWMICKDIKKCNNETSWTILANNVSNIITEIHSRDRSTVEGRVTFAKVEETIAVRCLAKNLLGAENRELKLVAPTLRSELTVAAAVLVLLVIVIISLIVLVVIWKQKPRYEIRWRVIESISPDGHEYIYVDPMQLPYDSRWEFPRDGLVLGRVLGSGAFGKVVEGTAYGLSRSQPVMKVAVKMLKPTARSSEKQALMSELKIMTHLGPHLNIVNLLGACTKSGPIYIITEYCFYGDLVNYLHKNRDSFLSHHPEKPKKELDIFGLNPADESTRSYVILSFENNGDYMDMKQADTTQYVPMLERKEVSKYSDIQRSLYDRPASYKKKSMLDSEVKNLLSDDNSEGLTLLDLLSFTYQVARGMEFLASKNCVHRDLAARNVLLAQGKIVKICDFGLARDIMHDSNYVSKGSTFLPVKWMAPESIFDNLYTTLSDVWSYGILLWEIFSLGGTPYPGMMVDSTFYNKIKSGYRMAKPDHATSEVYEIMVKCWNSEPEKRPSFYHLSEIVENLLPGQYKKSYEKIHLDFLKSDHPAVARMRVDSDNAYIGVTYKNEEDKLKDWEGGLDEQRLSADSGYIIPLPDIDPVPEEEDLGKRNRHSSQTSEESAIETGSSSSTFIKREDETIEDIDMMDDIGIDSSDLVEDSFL
Dual specificity mitogen-activated protein kinase kinase 2 (Homo sapiens), sequence (P36507 whole entry): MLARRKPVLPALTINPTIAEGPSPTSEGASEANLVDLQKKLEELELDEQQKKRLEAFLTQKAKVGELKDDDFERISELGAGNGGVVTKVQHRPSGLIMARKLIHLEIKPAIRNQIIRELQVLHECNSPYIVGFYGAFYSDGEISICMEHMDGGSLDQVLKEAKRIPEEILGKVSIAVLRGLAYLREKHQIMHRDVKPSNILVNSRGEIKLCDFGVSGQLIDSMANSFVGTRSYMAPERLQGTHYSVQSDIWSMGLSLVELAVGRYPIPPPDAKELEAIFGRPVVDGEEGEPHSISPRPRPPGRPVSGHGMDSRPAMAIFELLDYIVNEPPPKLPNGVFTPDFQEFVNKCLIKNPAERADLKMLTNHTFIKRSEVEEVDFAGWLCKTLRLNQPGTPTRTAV
Mitogen-activated protein kinase 11 (Homo sapiens), sequence (Q15759 whole entry): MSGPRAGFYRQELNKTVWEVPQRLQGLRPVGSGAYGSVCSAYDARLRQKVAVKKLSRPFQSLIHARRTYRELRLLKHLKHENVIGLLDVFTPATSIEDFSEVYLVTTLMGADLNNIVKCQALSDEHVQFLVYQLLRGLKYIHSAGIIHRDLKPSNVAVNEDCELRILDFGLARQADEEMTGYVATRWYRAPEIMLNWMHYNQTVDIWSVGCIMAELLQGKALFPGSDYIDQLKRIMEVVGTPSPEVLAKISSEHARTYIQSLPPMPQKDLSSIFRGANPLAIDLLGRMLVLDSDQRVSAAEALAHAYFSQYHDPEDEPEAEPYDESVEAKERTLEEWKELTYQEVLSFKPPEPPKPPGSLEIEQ
Mitogen-activated protein kinase 12 (Homo sapiens), sequence (P53778 whole entry): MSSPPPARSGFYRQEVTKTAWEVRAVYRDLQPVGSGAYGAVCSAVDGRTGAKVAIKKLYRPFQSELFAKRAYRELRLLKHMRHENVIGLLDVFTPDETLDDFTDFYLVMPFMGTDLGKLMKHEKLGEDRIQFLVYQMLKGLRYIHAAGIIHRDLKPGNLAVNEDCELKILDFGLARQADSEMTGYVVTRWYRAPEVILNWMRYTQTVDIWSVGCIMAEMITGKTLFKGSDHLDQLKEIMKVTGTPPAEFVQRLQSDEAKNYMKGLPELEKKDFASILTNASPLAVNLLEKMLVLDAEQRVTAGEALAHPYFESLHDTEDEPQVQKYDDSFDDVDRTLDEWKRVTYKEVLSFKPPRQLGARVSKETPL
Bone morphogenetic protein receptor type-2, sequence (Q13873 whole entry): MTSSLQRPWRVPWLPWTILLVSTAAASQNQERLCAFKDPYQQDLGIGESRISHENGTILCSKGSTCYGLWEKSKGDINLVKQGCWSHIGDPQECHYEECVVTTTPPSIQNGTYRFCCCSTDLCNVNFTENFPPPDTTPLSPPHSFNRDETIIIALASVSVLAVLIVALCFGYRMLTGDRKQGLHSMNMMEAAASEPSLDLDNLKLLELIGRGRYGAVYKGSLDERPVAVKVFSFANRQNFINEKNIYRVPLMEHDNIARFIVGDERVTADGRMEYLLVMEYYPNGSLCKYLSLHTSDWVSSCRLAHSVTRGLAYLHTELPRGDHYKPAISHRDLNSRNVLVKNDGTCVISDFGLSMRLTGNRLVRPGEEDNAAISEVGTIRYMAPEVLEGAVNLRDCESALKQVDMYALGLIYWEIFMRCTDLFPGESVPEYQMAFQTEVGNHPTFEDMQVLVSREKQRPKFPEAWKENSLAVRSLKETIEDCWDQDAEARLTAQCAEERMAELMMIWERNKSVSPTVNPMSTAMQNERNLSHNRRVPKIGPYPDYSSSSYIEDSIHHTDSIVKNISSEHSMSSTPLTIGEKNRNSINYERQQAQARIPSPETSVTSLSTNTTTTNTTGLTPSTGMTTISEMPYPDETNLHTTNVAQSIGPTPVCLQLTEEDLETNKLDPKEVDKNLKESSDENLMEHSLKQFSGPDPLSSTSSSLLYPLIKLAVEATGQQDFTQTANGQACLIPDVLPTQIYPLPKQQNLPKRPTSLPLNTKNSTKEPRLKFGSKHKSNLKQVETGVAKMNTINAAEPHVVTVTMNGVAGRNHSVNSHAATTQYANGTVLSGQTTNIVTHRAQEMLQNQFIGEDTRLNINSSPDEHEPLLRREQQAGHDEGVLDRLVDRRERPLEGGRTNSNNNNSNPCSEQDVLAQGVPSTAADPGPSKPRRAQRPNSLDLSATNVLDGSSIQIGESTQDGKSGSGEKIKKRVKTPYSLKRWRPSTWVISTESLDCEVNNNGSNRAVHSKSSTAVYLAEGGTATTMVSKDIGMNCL

| EC50 (TGF-beta receptor type-1 [1]) [µM] | residual activity [2] [%] | IC50 (TGF-beta receptor type-1 [3]) [µM] | residual activity [4] [%] | IC50 [6] [µM] | residual activity [7] [%] | residual activity [8] [%] | residual activity [9] [%] | residual activity [10] [%] | residual activity [11] [%] | IC50 [12] [µM] | IC50 (TGF-beta receptor type-2) [µM] | Structure (SMILES) | residual activity [5] [%] | IC50 (HaCaT) [µM] |
| --- | --- | --- | --- | --- | --- | --- | --- | --- | --- | --- | --- | --- | --- | --- |
| 0.16 | 97 | 0.032 | 86 | 1.1 | 106 | 61 | 92 |  |  |  |  | CCNCc1ccc(N/C(=C2\C(=O)Nc3cc(C(=O)N(C)CC)ccc32)c2ccccc2)cc1 | 88 | > 1 |
|  | 75 | 3.46 |  |  | 20 |  | 86 |  |  |  |  | O=C1Nc2ccccc2/C1=C(/Nc1ccc(CN2CCCCC2)cc1)c1ccccc1 | 5 |  |
| 0.198 | 94 | 0.186 | 99 |  | 68 |  | 87 | 100 | 91 |  |  | CN(C)C(=O)c1ccc2c(c1)/C(=C(/Nc1ccc(CN3CCCCC3)cc1)c1ccccc1)C(=O)N2 | 19 | > 1 |
| 0.185 |  | 0.019 |  | 0.099 | 124 | 86 | 123 |  |  |  |  | CCNC(=O)c1ccc2c(c1)NC(=O)/C2=C(\Nc1ccc(CN(C)C)cc1)c1ccccc1 | 102 | > 1 |
| 0.108 |  | 0.001 |  | 0.074 | 107 |  | 118 |  |  |  |  | CCNC(=O)c1ccc2c(c1)NC(=O)/C2=C(\Nc1ccc(N(CCN(C)C)S(C)(=O)=O)cc1)c1ccccc1 | 101 |  |
| 0.105 | 102 |  | 108 | 0.89 | 123 | 86 | 88 | 98 | 93 | > 50 | 19 | CCN(C)C(=O)c1ccc2c(c1)NC(=O)/C2=C(\Nc1ccc(CN2CCCCC2)cc1)c1ccccc1 | 150 | > 1 |

From ChEMBL document CHEMBL1268952, “Design, synthesis, and evaluation of indolinones as inhibitors of the transforming growth factor β receptor I (TGFβRI)” (J Med Chem, 2010)
